Reference: patent publication US20240300886A1, “ARYLCYCLOHEXYLAMINE DERIVATIVES AND THEIR USE IN THE TREATMENT OF PSYCHIATRIC DISORDERS” (GILGAMESH PHARMACEUTICALS, INC., priority 2021, published 2024)

Tested on: not listed separately
Test: Metabolic stability in Gottingen minipig liver microsomes (MPLM)
Format: in vitro ADME, Gottingen minipigs
Settings: pooled minipig liver microsomes, pH 7.4, 1 μM compound, 0.50 mg protein/mL, NADPH
Experimental: MPLM Stability. Pooled MPLM from Gottingen minipigs (Xenotech Z6000) were used. Microsomal incubations were carried out in multi-well plates. Liver microsomal incubation medium consisted of PBS (100 mM pH 7.4), MgCl2 (1 mM), and NADPH (1 mM), with 0.50 mg of liver microsomal protein per mL. Control incubations were performed by replacing the NADPH-cofactor system with PBS. Test compounds (1 μM, final solvent concentration 1.0%) were incubated with microsomes at 37° C. with constant shaking. Six time points over 60 minutes were analyzed, with 60 μL aliquots of the reaction mixture being drawn at each time point. The reaction aliquots were stopped by adding 180 μL of cold (4° C.) acetonitrile containing 200 ng/mL tolbutamide and 200 ng/mL labetalol as internal standards (IS), followed by shaking for 10 minutes, and then protein sedimentation by centrifugation at 4,000 rpm for 20 minutes at 4° C. Supernatant samples (80 μL) were diluted with water (240 μL) and analyzed for parent compound remaining using a fit-for-purpose liquid chromatography-tandem mass spectrometry (LC-MS/MS) method.
Data Analysis. The elimination constant (kel), half-life (t1/2) and intrinsic clearance (Clint) were determined in a plot of […] versus time, using linear regression analysis.

SMILES	half-life at 1 μM [h]	microsomal CLint at 1 μM [µL/min/mg]
CNC1(c2ccccc2Cl)CCCCC1=O (racemic) [racemic ketamine, ketamine]	0.107	218
N[C@]1(c2ccc(F)cc2)CCCCC1=O [Compound 1S, (S)-2-amino-2-(4-fluorophenyl)cyclohexan-1-one]	> 2.42	< 9.6
CN[C@@]1(c2ccc(F)cc2)CCCCC1=O [Compound 2R, (R)-2-(4-fluorophenyl)-2(methylamino)cyclohexan-1-one]	0.633	36.5
CN[C@]1(c2ccc(F)cc2)CCCCC1=O [Compound 2S, (S)-2-(4-fluorophenyl)-2-(methylamino)cyclohexan-1-one]	0.515	44.9
N[C@]1(c2cccc(F)c2)CCCCC1=O [Compound 3S]	> 2.42	< 9.6

Tested on: not listed separately
Test: Oral bioavailability in rats, Method B (plasma and brain PK)
Format: in vivo, Sprague Dawley rats
Settings: male, Sprague Dawley; rat brain, Method B, 1 mg/kg iv; read-out: t1/2 (iv)
Experimental: Animals. Male Sprague Dawley rats were used in these studies. Animals were randomly assigned to treatment groups and were fasted for 4 h before dosing.
Drugs. Test compounds were dissolved in a vehicle consisting of normal saline (for compounds used as the HCl salt) or normal saline slightly acidified with aq. HCl (for freebase compounds). They were then administered intravenously (iv) or orally (po) at a dose of […] (calculated based on freebase), as indicated, and at a volume of 5 mL/kg body weight. Compounds were tested as the racemates or pure enantiomers, as indicated.
Sample Collection and Bioanalysis. Blood samples (approximately 60 μL) were collected under light isoflurane anesthesia (Surgivet®) from the retro orbital plexus at 0.08, 0.25, 0.5, 1, 2, 4, 8, and 24 h (4 animals per time point). Immediately after blood collection, plasma was harvested by centrifugation at 4,000 rpm for 10 min at 4° C. and samples were stored at −70±10° C. until bioanalysis. Following blood collection, animals were immediately sacrificed, the abdominal vena-cava was cut open, and the whole body was perfused from the heart using 10 mL of normal saline, and brain samples were collected from all animals. After isolation, brain samples were rinsed three times in ice-cold normal saline (for 5-10 seconds/rinse using ˜-5-10 mL normal saline in disposable petri dish for each rinse) and dried on blotting paper. Brain samples were homogenized using ice-cold phosphate-buffered saline (pH 7.4). Total homogenate volume was three times the tissue weight. All homogenates were stored at −70±10° C. until bioanalysis. For bioanalysis, 25 μL aliquots of plasma/brain study samples or spiked plasma/brain calibration standards were added to individual pre-labeled micro-centrifuge tubes followed by 100 μL of an internal standard solution (glipizide, 500 ng/mL in acetonitrile) except for blanks, where 100 μL of acetonitrile was added. Samples were vortexed for 5 minutes and then centrifuged for 10 minutes at 4,000 rpm at 4° C. Following centrifugation, 100 μL of each clear supernatant was transferred to a 96 well plate and analyzed with a fit-for-purpose LC-MS/MS method, with authentic samples of each analyte used for calibration and identification.
Data Analysis. Pharmacokinetic parameters were estimated using the non-compartmental analysis tool of Phoenix® WinNonlin software (Ver 8.0).

SMILES	half-life [h]
N[C@]1(c2ccc(F)cc2)CCCCC1=O [Compound 1S, (S)-2-amino-2-(4-fluorophenyl)cyclohexan-1-one]	4.09
CN[C@@]1(c2ccc(F)cc2)CCCCC1=O [Compound 2R, (R)-2-(4-fluorophenyl)-2(methylamino)cyclohexan-1-one]	0.0633
CN[C@]1(c2ccc(F)cc2)CCCCC1=O [Compound 2S, (S)-2-(4-fluorophenyl)-2-(methylamino)cyclohexan-1-one]	0.7

Same assay, conditions: male, Sprague Dawley; rat brain, Method B, 1 mg/kg po

SMILES	Cmax [ng/g]
N[C@]1(c2ccc(F)cc2)CCCCC1=O [Compound 1S, (S)-2-amino-2-(4-fluorophenyl)cyclohexan-1-one]	167
CN[C@@]1(c2ccc(F)cc2)CCCCC1=O [Compound 2R, (R)-2-(4-fluorophenyl)-2(methylamino)cyclohexan-1-one]	42.8
CN[C@]1(c2ccc(F)cc2)CCCCC1=O [Compound 2S, (S)-2-(4-fluorophenyl)-2-(methylamino)cyclohexan-1-one]	47.6

Same assay, conditions: male, Sprague Dawley; rat brain, Method B, 1 mg/kg po; read-out: t1/2 (po)

SMILES	half-life [h]
N[C@]1(c2ccc(F)cc2)CCCCC1=O [Compound 1S, (S)-2-amino-2-(4-fluorophenyl)cyclohexan-1-one]	7.11
CN[C@@]1(c2ccc(F)cc2)CCCCC1=O [Compound 2R, (R)-2-(4-fluorophenyl)-2(methylamino)cyclohexan-1-one]	0.99

Same assay, conditions: male, Sprague Dawley; rat plasma, Method B, 1 mg/kg iv; read-out: t1/2 (iv)

SMILES	half-life [h]
N[C@]1(c2ccc(F)cc2)CCCCC1=O [Compound 1S, (S)-2-amino-2-(4-fluorophenyl)cyclohexan-1-one]	2.58
CN[C@@]1(c2ccc(F)cc2)CCCCC1=O [Compound 2R, (R)-2-(4-fluorophenyl)-2(methylamino)cyclohexan-1-one]	2.77
CN[C@]1(c2ccc(F)cc2)CCCCC1=O [Compound 2S, (S)-2-(4-fluorophenyl)-2-(methylamino)cyclohexan-1-one]	0.7

Same assay, conditions: male, Sprague Dawley; rat plasma, Method B, 1 mg/kg iv; values represent AUC0-last; read-out: AUC0-inf (iv) (converted)

SMILES	AUC(0-inf) [ng·h/mL]
N[C@]1(c2ccc(F)cc2)CCCCC1=O [Compound 1S, (S)-2-amino-2-(4-fluorophenyl)cyclohexan-1-one]	805
CN[C@@]1(c2ccc(F)cc2)CCCCC1=O [Compound 2R, (R)-2-(4-fluorophenyl)-2(methylamino)cyclohexan-1-one]	163
CN[C@]1(c2ccc(F)cc2)CCCCC1=O [Compound 2S, (S)-2-(4-fluorophenyl)-2-(methylamino)cyclohexan-1-one]	186

Same assay, conditions: male, Sprague Dawley; rat plasma, Method B, 1 mg/kg po

SMILES	Cmax [ng/mL]
N[C@]1(c2ccc(F)cc2)CCCCC1=O [Compound 1S, (S)-2-amino-2-(4-fluorophenyl)cyclohexan-1-one]	234
CN[C@@]1(c2ccc(F)cc2)CCCCC1=O [Compound 2R, (R)-2-(4-fluorophenyl)-2(methylamino)cyclohexan-1-one]	17.7
CN[C@]1(c2ccc(F)cc2)CCCCC1=O [Compound 2S, (S)-2-(4-fluorophenyl)-2-(methylamino)cyclohexan-1-one]	32.3

Same assay, conditions: male, Sprague Dawley; rat plasma, Method B, 1 mg/kg po; read-out: t1/2 (po)

SMILES	half-life [h]
N[C@]1(c2ccc(F)cc2)CCCCC1=O [Compound 1S, (S)-2-amino-2-(4-fluorophenyl)cyclohexan-1-one]	3.88
CN[C@@]1(c2ccc(F)cc2)CCCCC1=O [Compound 2R, (R)-2-(4-fluorophenyl)-2(methylamino)cyclohexan-1-one]	1.58
CN[C@]1(c2ccc(F)cc2)CCCCC1=O [Compound 2S, (S)-2-(4-fluorophenyl)-2-(methylamino)cyclohexan-1-one]	1.46

Same assay, conditions: male, Sprague Dawley; rat plasma, Method B, 1 mg/kg po; values represent AUC0-last; read-out: AUC0-inf (po) (converted)

SMILES	AUC(0-inf) [ng·h/mL]
N[C@]1(c2ccc(F)cc2)CCCCC1=O [Compound 1S, (S)-2-amino-2-(4-fluorophenyl)cyclohexan-1-one]	1140
CN[C@@]1(c2ccc(F)cc2)CCCCC1=O [Compound 2R, (R)-2-(4-fluorophenyl)-2(methylamino)cyclohexan-1-one]	50.3
CN[C@]1(c2ccc(F)cc2)CCCCC1=O [Compound 2S, (S)-2-(4-fluorophenyl)-2-(methylamino)cyclohexan-1-one]	37.8

Same assay, conditions: rat brain, Method B, 1 mg/kg iv; values represent AUC0-last

SMILES	AUC0-inf (iv) [ng·min/g]
N[C@]1(c2ccc(F)cc2)CCCCC1=O [Compound 1S, (S)-2-amino-2-(4-fluorophenyl)cyclohexan-1-one]	126462
CN[C@@]1(c2ccc(F)cc2)CCCCC1=O [Compound 2R, (R)-2-(4-fluorophenyl)-2(methylamino)cyclohexan-1-one]	27152.4
CN[C@]1(c2ccc(F)cc2)CCCCC1=O [Compound 2S, (S)-2-(4-fluorophenyl)-2-(methylamino)cyclohexan-1-one]	68000.4

Same assay, conditions: rat brain, Method B, 1 mg/kg po; values represent AUC0-last

SMILES	AUC0-inf (po) [ng·min/g]
N[C@]1(c2ccc(F)cc2)CCCCC1=O [Compound 1S, (S)-2-amino-2-(4-fluorophenyl)cyclohexan-1-one]	79272.6
CN[C@@]1(c2ccc(F)cc2)CCCCC1=O [Compound 2R, (R)-2-(4-fluorophenyl)-2(methylamino)cyclohexan-1-one]	4915.8
CN[C@]1(c2ccc(F)cc2)CCCCC1=O [Compound 2S, (S)-2-(4-fluorophenyl)-2-(methylamino)cyclohexan-1-one]	3067.2

Same assay, conditions: rat brain, Method B, 1 mg/kg; calculated based on brain exposure (AUC0-last)

SMILES	F [%]
N[C@]1(c2ccc(F)cc2)CCCCC1=O [Compound 1S, (S)-2-amino-2-(4-fluorophenyl)cyclohexan-1-one]	62.7
CN[C@@]1(c2ccc(F)cc2)CCCCC1=O [Compound 2R, (R)-2-(4-fluorophenyl)-2(methylamino)cyclohexan-1-one]	18.1
CN[C@]1(c2ccc(F)cc2)CCCCC1=O [Compound 2S, (S)-2-(4-fluorophenyl)-2-(methylamino)cyclohexan-1-one]	4.5

Same assay, conditions: rat plasma, Method B, 1 mg/kg; based on AUC0-last

SMILES	F [%]
N[C@]1(c2ccc(F)cc2)CCCCC1=O [Compound 1S, (S)-2-amino-2-(4-fluorophenyl)cyclohexan-1-one]	>100
CN[C@@]1(c2ccc(F)cc2)CCCCC1=O [Compound 2R, (R)-2-(4-fluorophenyl)-2(methylamino)cyclohexan-1-one]	31
CN[C@]1(c2ccc(F)cc2)CCCCC1=O [Compound 2S, (S)-2-(4-fluorophenyl)-2-(methylamino)cyclohexan-1-one]	20

Same assay, conditions: rats

SMILES	brain exposure after oral administration compared to enantiomer 2S
CN[C@@]1(c2ccc(F)cc2)CCCCC1=O [Compound 2R, (R)-2-(4-fluorophenyl)-2(methylamino)cyclohexan-1-one]	substantially higher brain exposure

Target: serotonin transporter (SERT) (Homo sapiens (Human), UniProt P31645)
Test: SERT fluorescent substrate uptake inhibition in transfected cells
Format: cell-based
Settings: stably transfected cells expressing SERT
Experimental: The ability of disclosed compounds to inhibit uptake of monoamines by the serotonin transporter (SERT) was measured using a fluorescent substrate uptake assay in transfected cells (Table 15). […] Considering that inhibitors of SERT are well known to have antidepressant and anxiolytic effects and are among the most commonly prescribed drugs for mood disorders (e.g. fluoxetine, sertraline, etc.), blockade of SERT by certain compounds of the present disclosure is expected to synergize with their NMDAR inhibition to increase therapeutic activity for treating depression and related disorders. […] Further, the ability to tune the ratio between SERT and NMDAR is useful to obtain the optimal therapeutic profile depending on the intended clinical indication.
Uptake Inhibition. The ability of test compounds to block monoamine uptake by SERT was determined using the Neurotransmitter Transporter Uptake Assay Kit manufactured by Molecular Devices (Cat #R8173). Briefly, stably transfected cells expressing SERT were grown and plated into 384-well plates at a concentration of 20,000 cells per well. Plates were then incubated for 16-20 h at 37° C. and 5% CO2. The medium was then aspirated and replaced with 25 μL of assay buffer (20 mM HEPES in HBSS, containing 0.1% BSA) containing the test compounds at the appropriate concentrations. Plates were then centrifuged at 300 rpm for 15 s and then incubated at 37° C. for 30 minutes. At this time, 25 μL of the proprietary fluorescent dye solution was added, the plates were incubated at 37° C. for 60 minutes, and then fluorescence was quantified on a plate reader (excitation wavelength=440 nm, emission wavelength=520 nm). The proprietary dye solution contains a mixture of 1) a fluorescent dye that mimics the endogenous substrate of SERT and is thereby actively transported to the intracellular compartment in the absence of an inhibitor and 2) a masking dye that inhibits the fluorescence of dye 1 in the extracellular compartment. Therefore, the overall fluorescence of the system increases as the fluorescent dye is transported into the cells.

SMILES	inhibition at 10 µM [%]
N[C@@]1(c2ccc(F)cc2)CCCCC1=O [Compound 1R, (R)-2-amino-2-(4-fluorophenyl)cyclohexan-1-one]	10.4
N[C@]1(c2ccc(F)cc2)CCCCC1=O [Compound 1S, (S)-2-amino-2-(4-fluorophenyl)cyclohexan-1-one]	14.9
CN[C@@]1(c2ccc(F)cc2)CCCCC1=O [Compound 2R, (R)-2-(4-fluorophenyl)-2(methylamino)cyclohexan-1-one]	58.8
CN[C@]1(c2ccc(F)cc2)CCCCC1=O [Compound 2S, (S)-2-(4-fluorophenyl)-2-(methylamino)cyclohexan-1-one]	36.4
N[C@]1(c2cccc(F)c2)CCCCC1=O [Compound 3S]	-0.21

Same assay, conditions: transfected cells, 10 μM

SMILES	ability to inhibit SERT uptake (in words)
CN[C@@]1(c2ccc(F)cc2)CCCCC1=O [Compound 2R, (R)-2-(4-fluorophenyl)-2(methylamino)cyclohexan-1-one]	substantial inhibitor, activity in the micromolar range
N[C@]1(c2cccc(F)c2)CCCCC1=O [Compound 3S]	inactive
